This note sets out measurements from US4455290A, “Inhibition of fibrin polymerization by a peptide isolated from fibrin Fragment D1” (Research Corporation, priority 1981, dated 1984).

Experiment [1] concerns the target T1, fibrinogen (Homo sapiens, UniProt P02671+P02675+P02679).
T1 construct: purchased Grade L
T1 sequence (P02671 20-644 isoform P02671-2 limits assumed): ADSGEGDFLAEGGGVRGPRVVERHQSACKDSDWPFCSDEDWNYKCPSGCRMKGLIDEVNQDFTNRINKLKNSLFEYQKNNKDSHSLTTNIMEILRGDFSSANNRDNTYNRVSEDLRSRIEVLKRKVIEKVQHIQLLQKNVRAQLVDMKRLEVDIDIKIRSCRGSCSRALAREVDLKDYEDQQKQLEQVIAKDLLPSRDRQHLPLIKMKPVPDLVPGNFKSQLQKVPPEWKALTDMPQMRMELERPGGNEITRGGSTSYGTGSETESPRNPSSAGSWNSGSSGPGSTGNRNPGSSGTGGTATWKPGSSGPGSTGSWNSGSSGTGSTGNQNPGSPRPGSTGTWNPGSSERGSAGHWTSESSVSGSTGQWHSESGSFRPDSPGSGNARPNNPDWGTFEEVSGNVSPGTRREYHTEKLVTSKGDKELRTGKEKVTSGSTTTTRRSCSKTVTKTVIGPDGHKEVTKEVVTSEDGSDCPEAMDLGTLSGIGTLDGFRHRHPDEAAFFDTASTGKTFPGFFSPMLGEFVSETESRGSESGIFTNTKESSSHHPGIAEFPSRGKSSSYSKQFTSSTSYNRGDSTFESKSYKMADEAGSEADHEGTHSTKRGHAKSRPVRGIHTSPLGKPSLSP
T1 sequence (P02675 31-491): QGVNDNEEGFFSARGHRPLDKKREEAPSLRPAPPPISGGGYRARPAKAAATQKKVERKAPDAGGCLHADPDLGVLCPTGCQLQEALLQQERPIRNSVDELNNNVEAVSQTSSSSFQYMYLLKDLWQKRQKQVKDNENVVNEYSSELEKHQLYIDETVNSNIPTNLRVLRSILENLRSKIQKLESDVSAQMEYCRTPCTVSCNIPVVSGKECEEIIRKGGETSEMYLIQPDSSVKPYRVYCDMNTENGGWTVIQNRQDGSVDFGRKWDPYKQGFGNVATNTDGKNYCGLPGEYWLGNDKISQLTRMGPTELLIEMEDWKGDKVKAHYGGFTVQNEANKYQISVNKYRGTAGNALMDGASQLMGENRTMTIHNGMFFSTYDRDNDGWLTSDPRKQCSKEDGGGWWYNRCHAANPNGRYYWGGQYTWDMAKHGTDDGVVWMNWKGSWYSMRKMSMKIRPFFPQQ
T1 sequence (P02679 27-437 isoform P02679-2 limits assumed): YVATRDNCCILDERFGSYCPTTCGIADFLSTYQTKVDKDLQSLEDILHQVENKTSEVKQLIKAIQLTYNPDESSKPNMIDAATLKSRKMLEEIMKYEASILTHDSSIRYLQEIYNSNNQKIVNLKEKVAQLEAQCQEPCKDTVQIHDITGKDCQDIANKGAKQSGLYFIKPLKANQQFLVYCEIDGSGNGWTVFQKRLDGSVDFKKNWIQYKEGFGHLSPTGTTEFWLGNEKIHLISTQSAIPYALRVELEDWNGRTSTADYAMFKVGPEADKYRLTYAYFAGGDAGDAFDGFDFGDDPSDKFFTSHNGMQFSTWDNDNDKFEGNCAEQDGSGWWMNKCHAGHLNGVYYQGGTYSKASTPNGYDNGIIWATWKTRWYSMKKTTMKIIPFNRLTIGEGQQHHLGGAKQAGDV
Kind of experiment: Equilibrium binding of 125-I D1 Peptide, fibrinogen. From the text: Acta 133, 376-379 (1979).

The test system of experiment [2] is thrombin time. Description: Thrombin time test. The note with it: stated as 'could be caused'; no experiment described.
In experiment [3] the target is T2, thrombin-treated NH2-terminal disulfide knot (NDSK) (Homo sapiens, UniProt P02671+P02675+P02679).
T2 sequence (P02671 36-70 limits assumed): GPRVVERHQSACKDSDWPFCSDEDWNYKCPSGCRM
T2 sequence (P02675 45-148 limits assumed): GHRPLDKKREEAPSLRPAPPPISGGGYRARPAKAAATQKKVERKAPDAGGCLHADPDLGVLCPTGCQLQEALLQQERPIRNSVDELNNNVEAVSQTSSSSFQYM
T2 sequence (P02679 27-453): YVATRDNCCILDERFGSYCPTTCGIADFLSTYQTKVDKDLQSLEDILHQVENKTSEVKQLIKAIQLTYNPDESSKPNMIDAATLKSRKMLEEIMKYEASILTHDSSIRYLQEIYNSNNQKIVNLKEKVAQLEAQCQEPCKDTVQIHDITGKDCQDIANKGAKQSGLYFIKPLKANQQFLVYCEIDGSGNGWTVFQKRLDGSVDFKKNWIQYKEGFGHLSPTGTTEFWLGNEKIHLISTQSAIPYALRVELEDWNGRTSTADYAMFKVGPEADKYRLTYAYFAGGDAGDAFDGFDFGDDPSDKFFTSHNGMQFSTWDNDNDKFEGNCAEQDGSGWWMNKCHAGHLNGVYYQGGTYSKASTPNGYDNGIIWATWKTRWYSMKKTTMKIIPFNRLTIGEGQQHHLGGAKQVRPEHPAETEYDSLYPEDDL
Kind of experiment: Equilibrium binding of 125-I D1 Peptide (equilibrium dialysis / Sephadex gel equilibrium), thrombin-treated NDSK.

Structures are written as SMILES. Peptide text beside a SMILES is read from it.

As to `CC[C@H](C)[C@H](NC(=O)[C@H](CCCCN)NC(=O)[C@H](CCSC)NC(=O)[C@@H](NC(=O)[C@@H](NC(=O)[C@H](CCCCN)NC(=O)[C@H](CCCCN)NC(=O)[C@H](CCSC)NC(=O)[C@H](CO)NC(=O)[C@H](Cc1ccc(O)cc1)NC(=O)[C@H](Cc1c[nH]c2ccccc12)NC(=O)[C@H](CCCNC(=N)N)NC(=O)[C@@H](N)[C@@H](C)O)[C@@H](C)O)[C@@H](C)O)C(=O)N[C@H](C(=O)N1CCC[C@H]1C(=O)N[C@@H](Cc1ccccc1)C(=O)N[C@@H](CC(N)=O)C(=O)N[C@@H](CCCNC(=N)N)C(=O)N[C@@H](CC(C)C)C(=O)N[C@H](C(=O)N[C@H](C(=O)NCC(=O)N[C@@H](CCC(=O)O)C(=O)NCC(=O)N[C@@H](CCC(N)=O)C(=O)N[C@@H](CCC(N)=O)C(=O)N[C@@H](Cc1c[nH]cn1)C(=O)N[C@@H](Cc1c[nH]cn1)C(=O)N[C@@H](CC(C)C)C(=O)NCC(=O)NCC(=O)N[C@@H](C)C(=O)N[C@@H](CCCCN)C(=O)N[C@@H](CCC(N)=O)C(=O)N[C@@H](C)C(=O)NCC(=O)N[C@@H](CC(=O)O)C(=O)N[C@H](C(=O)O)C(C)C)[C@@H](C)CC)[C@@H](C)O)[C@@H](C)CC` [D1 Peptide] (H-TRWYSMKKTTMKIIPFNRLTIGEGQQHHLGGAKQAGDV-OH), in experiment [1], the binding to fibrinogen entry is given as “no measurable binding”. In addition, the “blood concentration causing a 50% increase in thrombin time” value in experiment [2] is recorded as “about 4.4×10^-6 M”. Also, in experiment [3] (Scatchard analysis (FIG. 6)), the “number of binding sites on thrombin-treated NDSK” value is recorded as “approximately 2.1”. The “n (number of binding sites)” value in experiment [3] (plot of 1/free ligand vs. total NDSK/bound protein) was 2.2.
